# From BindingDB's records for patent US8623892 (Viamet Pharmaceuticals, 2014)
# Biological target: T1, Steroid 17-alpha-hydroxylase/17,20 lyase (Rattus norvegicus, UniProt P11715)
# T1 sequence (P11715 whole entry): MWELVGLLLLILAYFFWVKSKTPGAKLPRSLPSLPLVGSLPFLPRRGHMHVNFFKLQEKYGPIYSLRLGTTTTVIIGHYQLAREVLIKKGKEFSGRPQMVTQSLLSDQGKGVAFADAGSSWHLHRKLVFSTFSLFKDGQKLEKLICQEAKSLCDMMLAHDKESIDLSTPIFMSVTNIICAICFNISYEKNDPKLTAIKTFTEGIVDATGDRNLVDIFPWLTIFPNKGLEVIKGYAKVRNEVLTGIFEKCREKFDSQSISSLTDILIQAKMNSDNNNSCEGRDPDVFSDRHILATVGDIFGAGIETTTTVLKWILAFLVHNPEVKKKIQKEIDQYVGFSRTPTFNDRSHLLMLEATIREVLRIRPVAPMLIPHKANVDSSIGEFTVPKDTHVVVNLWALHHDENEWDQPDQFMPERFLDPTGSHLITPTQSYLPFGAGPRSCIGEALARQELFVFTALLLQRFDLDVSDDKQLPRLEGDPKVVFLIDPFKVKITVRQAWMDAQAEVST
# Experiment: Inhibition Assay
# Source text: If a weakly binding metal-binding group is utilized, potency may be suboptimal. On the other hand, if a very tightly binding metal-binding group is utilized, selectivity for the target enzyme versus related metalloenzymes may be suboptimal. The lack of optimal selectivity can be a cause for clinical toxicity due to unintended inhibition of these off-target metalloenzymes. […] It is believed that this off-target inhibition is caused primarily by the indiscriminate binding of the currently utilized 1-imidazole to iron in the active site of CYP2C9, CYP2C19 and CYP3A4.
smiles,measurement,value
"CC(C)C(O)(c1ccc2cc(OC(F)F)c(OC(F)F)cc2c1)c1c[nH]nn1 (stereo unspecified) [US8623892, 3]",IC50,220 nM
